{"source": "patent US5006515A", "about": "“Pharmaceuticals, phosphorus-containing 2-isoxazolines and isoxazoles contained therein” (Hoechst Aktiengesellschaft, priority 1987, dated 1991)"}
{"test_system": "active Arthus reaction", "test": "Active Arthus reaction in the rat", "format": "in vivo, Sprague-Dawley rats", "details": "Rattus norvegicus, po, 4 h, oral dose 100 mg/kg, 4 h after ovalbumin challenge; read-out: Active Arthus reaction % change", "protocol": "(§1) The experimental animals used were female and male Sprague-Dawley rats with a body weight between 80 and 100 g which received subcutaneous injections into the tail-head of 0.5 ml of an emulsion of pertussis vaccine and ovalbumin in liquid paraffin. After two weeks, the rats were divided into groups each of 8 animals. 24 hours and 1 hour before induction of the Arthus reaction by injection of 0.1 ml of a 0.4% strength ovalbumin solution into the right hind paw, the particular test substance or the pure vehicle (positive control) was administered orally, sodium chloride solution was injected into the left paw. One group of unsensitized animals (negative control group) was likewise treated with ovalbumin in order to be able to rule out nonspecific reactions to the protein. The parameter used for measuring the action of the product was the percentage change in the increase in paw volume compared with that in the control group which was sensitized but untreated (positive control) 4 hours after ovalbumin challenge, when the swelling had reached its maximum.", "units": {"change in vivo at 100 mg/kg": "%"}}
{"smiles": "O=P(O)(O)CC1CC(c2ccc(Cl)cc2)=NO1", "note": "(centres unmarked) [Example 41]", "change in vivo at 100 mg/kg": 26}
{"test_system": "active Arthus reaction", "test": "Active Arthus reaction in the rat", "format": "in vivo, Sprague-Dawley rats", "details": "Rattus norvegicus, po, 4 h, read-out: Active Arthus reaction % change", "protocol": "as §1", "units": {"change in vivo at 35 mg/kg": "%", "change in vivo at 100 mg/kg": "%", "change in vivo at 20 mg/kg": "%", "change in vivo at 70 mg/kg": "%", "change in vivo at 25 mg/kg": "%"}}
{"smiles": "O=P(O)(O)C1CC(c2cccs2)=NO1", "note": "(centres unmarked) [Example 75, 3-(2-Thienyl)-2-isoxazolin-5-ylphosphonic acid]", "change in vivo at 35 mg/kg": -26}
{"smiles": "CC(C)(C)C1=NOC(P(=O)(O)O)C1", "note": "(centres unmarked) [Example 33, 3-tert.butyl-2-isoxazolin-5-ylphosphonic acid]", "change in vivo at 100 mg/kg": -15}
{"smiles": "CC(C)(C)C1=NOC(P(C)(=O)O)C1", "note": "(centres unmarked) [Example 64, 3-tert.Butyl-2-isoxazolin-5-yl(P-methyl)phosphinic acid]", "change in vivo at 20 mg/kg": -59}
{"smiles": "CP(=O)(O)C1CC(C(=O)O)=NO1", "note": "(centres unmarked) [Example 102]", "change in vivo at 35 mg/kg": -35}
{"smiles": "CC(C)(C)c1cc(P(=O)(O)O)on1", "note": "[Example 77, Diammonium 3-tert.butyl-5-isoxazolylphosphonate]", "change in vivo at 35 mg/kg": -20}
{"smiles": "Br.CN(C)c1ccc(C2=NOC(P(=O)(O)O)C2)cc1", "note": "(centres unmarked) [Example 71, 3-(4-Dimethylaminophenyl)-2-isoxazolin-5-ylphosphonic acid hydrobromide]", "change in vivo at 70 mg/kg": -10}
{"smiles": "CCCC1=NOC(P(=O)(O)O)C1", "note": "(centres unmarked) [Example 47]", "change in vivo at 25 mg/kg": -35}
{"smiles": "CC(C)(C)C1=NOC(CP(C)(=O)O)C1", "note": "(centres unmarked) [Example 99]", "change in vivo at 35 mg/kg": -32}
{"smiles": "CCOC(=O)C1=NOC(P(C)(=O)O)C1", "note": "(centres unmarked) [Example 101]", "change in vivo at 70 mg/kg": -32}
{"smiles": "CP(=O)(O)CC1CC(Cl)=NO1", "note": "(centres unmarked) [Example 79, 3-Chloro-2-isoxazolin-5-ylmethyl(P-methyl)phosphinic acid]", "change in vivo at 70 mg/kg": -24}
{"test_system": "active Arthus reaction", "test": "Active Arthus reaction in the rat", "format": "in vivo, Sprague-Dawley rats", "details": "Rattus norvegicus; oral dose 25 mg/kg, 4 h after ovalbumin challenge; read-out: Active Arthus reaction % change", "protocol": "as §1", "units": {"change in vivo at 25 mg/kg": "%"}}
{"smiles": "CCOP(=O)(O)C1CC(c2ccc(OC)cc2)=NO1", "note": "(centres unmarked) [Example 28, Monoethyl ammonium 3-(4-methoxyphenyl)-2-isoxazolin-5-ylphosphonate]", "change in vivo at 25 mg/kg": -12}
{"test_system": "active Arthus reaction", "test": "Active Arthus reaction in the rat", "format": "in vivo, Sprague-Dawley rats", "details": "Rattus norvegicus; oral dose 50 mg/kg, 4 h after ovalbumin challenge", "protocol": "as §1", "units": {"change in vivo at 50 mg/kg": "%"}}
{"smiles": "COC(=O)c1ccc(C2=NOC(P(=O)(OC)OC)C2)cc1", "note": "(centres unmarked) [Example 66, Dimethyl 3-(4-methoxycarbonylphenyl)-2-isoxazolin-5-ylphosphonate]", "change in vivo at 50 mg/kg": -28}
{"test_system": "active Arthus reaction", "test": "Active Arthus reaction in the rat", "format": "in vivo, Sprague-Dawley rats", "details": "Rattus norvegicus; oral dose 70 mg/kg, 4 h after ovalbumin challenge; read-out: Active Arthus reaction % change", "protocol": "as §1", "units": {"change in vivo at 70 mg/kg": "%"}}
{"smiles": "CCOP(=O)(O)C1CC(c2ccccc2)=NO1", "note": "(centres unmarked) [Example 27, Monoethyl 3-phenyl-2-isoxazolin-5-ylphosphonate]", "change in vivo at 70 mg/kg": 108}
{"smiles": "CCOP(=O)(C1CC(c2ccccc2)=NO1)N1CCCC1", "note": "(centres unmarked) [Example 55, 3-Phenyl-2-isoxazolin-5-yl(P-ethoxy)phosphonic acid pyrrolidide]", "change in vivo at 70 mg/kg": -23}
{"test_system": "active Arthus reaction", "test": "Active Arthus reaction in the rat", "format": "in vivo, Sprague-Dawley rats", "details": "Rattus norvegicus; oral dose 100 mg/kg, 4 h after ovalbumin challenge; read-out: Active Arthus reaction % change", "protocol": "as §1", "units": {"change in vivo at 100 mg/kg": "%"}}
{"smiles": "CCOP(=O)(NCC(=O)OCc1ccccc1)C1CC(c2ccccc2)=NO1", "note": "(centres unmarked) [Example 56, N-[3-Phenyl-2-isoxazolin-5-yl(P-ethoxy)phosphonoyl]glycine benzyl ester]", "change in vivo at 100 mg/kg": 35}
{"test_system": "active Arthus reaction", "test": "Active Arthus reaction in the rat", "format": "in vivo, Sprague-Dawley rats", "details": "oral dose 50 mg/kg, 4 h after ovalbumin challenge", "protocol": "as §1", "units": {"Active Arthus reaction % change": "%"}}
{"smiles": "COP(=O)(OC)C1CC(C(C)(C)O)=NO1", "note": "(centres unmarked) [Example 90]", "Active Arthus reaction % change": -31}
{"test_system": "active Arthus reaction", "test": "Active Arthus reaction in the rat", "format": "in vivo, Sprague-Dawley rats", "details": "oral dose 100 mg/kg, 4 h after ovalbumin challenge", "protocol": "as §1", "units": {"Active Arthus reaction % change": "%"}}
{"smiles": "COP(=O)(OC)C1CC(c2ccccc2)=NO1", "note": "(racemic) [Example 5, Dimethyl 3-phenyl-2-isoxazolin-5-ylphosphonate]", "Active Arthus reaction % change": -20}
{"biological_target": "leucine aminopeptidase", "test": "Inhibition of leucine aminopeptidase", "format": "biochemical", "details": "substrate L-leucine 4-nitroanilide", "protocol": "The activity of the enzyme aminopeptidase B was determined photometrically using the substrate L-lysine 2-naphthylamide at room temperature. […] In the same way, the inhibition of leucine aminopeptidase was investigated using L-leucine 4-nitroanilide as enzyme substrate. The IC50 values are compiled in Table 6.", "units": {"Leucine aminopeptidase IC50": "μug/ml"}}
{"smiles": "O=P(O)(O)C1CC(c2cccs2)=NO1", "note": "(centres unmarked) [Example 75, 3-(2-Thienyl)-2-isoxazolin-5-ylphosphonic acid]", "Leucine aminopeptidase IC50": 79}
{"smiles": "O=C(C1=NOC(P(=O)(O)O)C1)c1ccccc1", "note": "(centres unmarked) [Example 53]", "Leucine aminopeptidase IC50": 65}
{"smiles": "CCOP(=O)(OCC)C1CC(c2ccccc2)=NO1", "note": "(centres unmarked) [Example 1, Diethyl 3-phenyl-2-isoxazolin-5-ylphosphonate]", "Leucine aminopeptidase IC50": 65}
{"smiles": "Br.CN(C)c1ccc(C2=NOC(P(=O)(O)O)C2)cc1", "note": "(centres unmarked) [Example 71, 3-(4-Dimethylaminophenyl)-2-isoxazolin-5-ylphosphonic acid hydrobromide]", "Leucine aminopeptidase IC50": 37}
{"smiles": "CCCC1=NOC(P(=O)(O)O)C1", "note": "(centres unmarked) [Example 47]", "Leucine aminopeptidase IC50": 35}
{"test_system": "not listed separately", "test": "Acute toxicity", "design": "species or system mice", "details": "mouse, in vivo, ip, single dose, mortality within 7 days", "protocol": "(§2) The LD50 values were determined by the standard method via the mortality occurring within 7 days in NMRI (Naval Medical Research Institute) mice (6 animals per dose) after a single intraperitoneal (i.p.) or intravenous (i.v.) dose.", "units": {"LD50 at 168 h": "mg/kg"}}
{"smiles": "COP(=O)(OC)C1CC(c2ccc(F)cc2)=NO1", "note": "(centres unmarked) [Example 65]", "LD50 at 168 h": "> 300"}
{"smiles": "COP(=O)(OC)C1CC(c2ccccc2)=NO1", "note": "(racemic) [Example 5, Dimethyl 3-phenyl-2-isoxazolin-5-ylphosphonate]", "LD50 at 168 h": "300 to 600"}
{"smiles": "Br.CN(C)c1ccc(C2=NOC(P(=O)(O)O)C2)cc1", "note": "(centres unmarked) [Example 71, 3-(4-Dimethylaminophenyl)-2-isoxazolin-5-ylphosphonic acid hydrobromide]", "LD50 at 168 h": "150 to 300"}
{"smiles": "O=P(O)(O)CC1CC(c2ccc(Cl)cc2)=NO1", "note": "(centres unmarked) [Example 41]", "LD50 at 168 h": "150 to 300"}
{"smiles": "CCOP(=O)(NCC(=O)OCc1ccccc1)C1CC(c2ccccc2)=NO1", "note": "(centres unmarked) [Example 56, N-[3-Phenyl-2-isoxazolin-5-yl(P-ethoxy)phosphonoyl]glycine benzyl ester]", "LD50 at 168 h": "> 1200"}
{"test_system": "not listed separately", "test": "Acute toxicity", "design": "species or system mice", "details": "mouse, in vivo, iv, single dose, mortality within 7 days", "protocol": "as §2", "units": {"LD50 at 168 h": "mg/kg"}}
{"smiles": "CCOP(=O)(O)C1CC(c2ccccc2)=NO1", "note": "(centres unmarked) [Example 27, Monoethyl 3-phenyl-2-isoxazolin-5-ylphosphonate]", "LD50 at 168 h": "> 200"}
{"smiles": "O=P(O)(O)C1CC(c2cccs2)=NO1", "note": "(centres unmarked) [Example 75, 3-(2-Thienyl)-2-isoxazolin-5-ylphosphonic acid]", "LD50 at 168 h": "> 100"}
{"smiles": "CC(C)(C)C1=NOC(P(=O)(O)O)C1", "note": "(centres unmarked) [Example 33, 3-tert.butyl-2-isoxazolin-5-ylphosphonic acid]", "LD50 at 168 h": "> 200"}
{"smiles": "CC(C)(C)C1=NOC(P(C)(=O)O)C1", "note": "(centres unmarked) [Example 64, 3-tert.Butyl-2-isoxazolin-5-yl(P-methyl)phosphinic acid]", "LD50 at 168 h": "> 200"}
{"smiles": "CCOP(=O)(O)C1CC(c2ccc(OC)cc2)=NO1", "note": "(centres unmarked) [Example 28, Monoethyl ammonium 3-(4-methoxyphenyl)-2-isoxazolin-5-ylphosphonate]", "LD50 at 168 h": "> 200"}
{"smiles": "CCOP(=O)(C1CC(c2ccccc2)=NO1)N1CCCC1", "note": "(centres unmarked) [Example 55, 3-Phenyl-2-isoxazolin-5-yl(P-ethoxy)phosphonic acid pyrrolidide]", "LD50 at 168 h": "> 200"}
{"smiles": "CCCC1=NOC(P(=O)(O)O)C1", "note": "(centres unmarked) [Example 47]", "LD50 at 168 h": "> 200"}
{"smiles": "CC(C)(C)C1=NOC(CP(C)(=O)O)C1", "note": "(centres unmarked) [Example 99]", "LD50 at 168 h": "> 100"}
{"smiles": "CCOC(=O)C1=NOC(P(C)(=O)O)C1", "note": "(centres unmarked) [Example 101]", "LD50 at 168 h": "> 100"}
{"test_system": "DTH reaction to sheep erythrocytes", "test": "Delayed-type hypersensitivity (DTH) reaction to sheep erythrocytes", "format": "in vivo, female NMRI mice", "details": "single i.p. dose of 40 mg/kg; maximal stimulation by Example 34 = 100%", "protocol": "Groups each comprising 5 female NMRI mice with a body weight of 18 to 20 g were formed, and each animal was given 10^6 or 10^9 sheep red blood cells intravenously. Sheep erythrocytes are regarded in immunology as a standard antigen with which it is possible to check cellular and humoral immunoreactivity, especially the functioning of the T-cell-dependent component of the immune system, the so-called T-helper cells. The test substances were administered, in intraperitoneal doses of 5 to 100 mg/kg in physiological saline, at the same time as the antigen. After 5 days, each animal was given an injection of 2×10^8 sheep erythrocytes into the footpad. 24 hours later, the swelling of the foot was measured. The foot swelling is induced by a skin reaction of the delayed type (DTH reaction) and, as is known to those skilled in the art, is a measure of the cellular immune response (J. Immunol. 101 (1968), 830-845). The test results obtained with the product of Example 34, by way of example, are compiled in Table 7 and illustrate that the compounds of the formula I--administered prophylactically--are able to increase the cellular immune response after immunization with the antigen by stimulation of the T-cell system, with the stimulant action reaching its optimum in this experiment at a dose of 25 mg/kg.", "units": {"Relative stimulation of the DTH reaction": "%"}}
{"smiles": "CCOP(=O)(O)C1CC(c2ccccc2)=NO1", "note": "(centres unmarked) [Example 27, Monoethyl 3-phenyl-2-isoxazolin-5-ylphosphonate]", "Relative stimulation of the DTH reaction": 94}
{"smiles": "O=C(C1=NOC(P(=O)(O)O)C1)c1ccccc1", "note": "(centres unmarked) [Example 53]", "Relative stimulation of the DTH reaction": 68}
{"smiles": "Cc1ccc(C2=NOC(P(C)(=O)O)C2)cc1", "note": "(centres unmarked) [Example 30]", "Relative stimulation of the DTH reaction": 76}
{"test_system": "peritoneal macrophages", "test": "Stimulation of the release of lysosomal enzymes from peritoneal macrophages (exocytosis)", "details": "single i.p. dose of 40 mg/kg; maximum activation by Example 34 = 100%", "units": {"Relative stimulation of macrophage activity: Exocytosis": "%"}}
{"smiles": "COP(=O)(OC)C1CC(c2ccccc2)=NO1", "note": "(racemic) [Example 5, Dimethyl 3-phenyl-2-isoxazolin-5-ylphosphonate]", "Relative stimulation of macrophage activity: Exocytosis": 54}
